Paper PMC7125586 (Febs Letters, 2007)

Columns and labels:
[1] = test system: gp160 processing; conditions: cell-permeable peptide; cited from earlier work
[2] = target: furin (recombinant soluble hfurin) (Homo sapiens, UniProt P09958); assay: Inhibition assay of furin with fluorogenic substrate Pyr-RTKR-MCA; assay type: biochemical; conditions: up to 100 μM heparin (20 μM or 100 μM); fluorescence
Sequence of furin (recombinant soluble hfurin) (P09958 108-715 limits assumed): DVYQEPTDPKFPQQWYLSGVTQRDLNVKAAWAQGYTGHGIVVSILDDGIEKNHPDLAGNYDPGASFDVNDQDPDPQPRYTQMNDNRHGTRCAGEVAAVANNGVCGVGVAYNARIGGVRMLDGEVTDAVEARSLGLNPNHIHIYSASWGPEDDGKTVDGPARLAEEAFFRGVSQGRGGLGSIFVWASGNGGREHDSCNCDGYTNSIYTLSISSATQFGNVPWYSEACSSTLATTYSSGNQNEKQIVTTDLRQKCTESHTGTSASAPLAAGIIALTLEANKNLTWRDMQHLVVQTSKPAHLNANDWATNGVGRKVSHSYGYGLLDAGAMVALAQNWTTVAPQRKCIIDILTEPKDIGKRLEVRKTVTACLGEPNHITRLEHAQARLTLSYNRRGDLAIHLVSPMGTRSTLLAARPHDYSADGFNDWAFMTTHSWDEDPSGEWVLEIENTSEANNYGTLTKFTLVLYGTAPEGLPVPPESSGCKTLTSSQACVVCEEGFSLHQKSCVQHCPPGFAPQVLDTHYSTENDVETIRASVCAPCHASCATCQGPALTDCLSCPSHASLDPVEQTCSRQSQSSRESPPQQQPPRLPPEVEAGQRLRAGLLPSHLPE

Substance: KIEPLGVAPTKAKRRVVQREKR [22mer]
- Interference with gp160 processing [1]: interferes with gp160 processing

Substance: heparin
- Influence on furin activity on Pyr-RTKR-MCA processing [2]: did not influence furin activity
